Counter-ions that a name gives are not always drawn.
Legend:
[1] = molecular target: T1, Human GHSR (Homo sapiens, UniProt Q92847); experiment: GHS-R GTPγS functional antagonist assay; type: biochemical; set-up: The full-length gene was transferred into pCDN for expression analysis; expressed in transfected cells; host or cells: CHO cells (electroporated, pCDN) or HEK293T cells (transient, pcDNA3); membranes prepared from the cultured cells; settings: membranes of HEK293T cells transiently expressing GHS-R; human Ghrelin at EC80; [35S]GTPγS SPA
T1 sequence (Q92847 whole entry): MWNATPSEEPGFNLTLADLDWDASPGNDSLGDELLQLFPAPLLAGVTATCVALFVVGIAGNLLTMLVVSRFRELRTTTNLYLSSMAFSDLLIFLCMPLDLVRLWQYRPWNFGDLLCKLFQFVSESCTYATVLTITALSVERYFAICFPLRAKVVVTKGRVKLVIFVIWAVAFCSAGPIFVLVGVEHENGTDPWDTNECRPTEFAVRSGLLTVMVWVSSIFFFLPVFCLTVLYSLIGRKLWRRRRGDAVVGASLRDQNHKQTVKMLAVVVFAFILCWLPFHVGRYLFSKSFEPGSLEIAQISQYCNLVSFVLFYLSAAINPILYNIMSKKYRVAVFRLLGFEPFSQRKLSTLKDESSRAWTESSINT
Procedure: Human GHS-R was cloned from human hypothalamus cDNA and TOPO Ta cloned into pCR2.1. The sequence was confirmed. The full-length gene was transferred into pCDN for expression analysis. The sequence was confirmed again and the plasmid was electroporated into CHO cells. The clones were screened by FLIPR.
HEK293T cells (HEK293 cells stably expressing the SV40 large T-antigen) were maintained in DMEM containing 10% (v/v) newborn calf serum and 2 mM glutamine. Cells were seeded in 60 mm culture dishes and grown to 60-80% confluency (18-24 h) prior to transfection with pcDNA3 containing the relevant DNA species using Lipofectamine reagent. […]
The plate was then incubated on a shaker at room temperature for 30 mins followed by centrifugation for 5 mins at 1500 rpm. The plate was read between 3 and 6 hours after completion of centrifuge run in a Wallac Microbeta counter on a 1 min normalised tritium count protocol. Data was analysed using a 4-parameter logistic equation. […]
Protocol as described above for functional agonist assay, except prior to addition of the [35-S], 10 ul of human Ghrelin solution in assay buffer was added to give a final concentration equating to EC80 (determined for each assay).

[2] = molecular target: T1, Human GHSR; experiment: GHSR Antagonist BACMAM FLIPR Assay (Method B); type: cell-based; set-up: The full-length gene was transferred into pCDN for expression analysis; expressed in transfected cells; host or cells: U2OS cells transduced with human GHSR BacMam virus (pFastBacmam, CMV promoter); settings: U2OS cells transduced with human GHSR BACMAM virus, EC80 hGhrelin, accurate to within ±0.5
Source text: Human GHS-R was cloned from human hypothalamus cDNA and TOPO Ta cloned into pCR2.1. The sequence was confirmed. The full-length gene was transferred into pCDN for expression analysis. The sequence was confirmed again and the plasmid was electroporated into CHO cells. The clones were screened by FLIPR. The open reading frame of GHS-R was transferred from pCDN into pFastBacmam vector. This vector was used to generate recombinant baculoviruses in which the insect cell-specific polyhedrin promoter has been replaced with a mammalian cell-active promoter, in this case CMV. This was then used with the Bac to Bac expression system (Invitrogen). Briefly the vector was transformed into DH10 bac E. coli and the bacmid isolated from the transformed cells. The bacmid was then transfected into Sf9 insect cells grown in ExCell 420 (JRH) medium in 6-well dishes for the production of recombinant baculovirus particules. 24 hours prior to assay U2OS cells at confluence 100% were harvested and spun down. The supernatant was removed and the cells resuspended in media (DMEM+10% FBS+1% L-Glutamine). […] Human GHSR BACMAM virus was added to the cell suspension at an appropriate % volume (calculated for individual batches of BACMAM virus as viral titres vary). […] Maximum changes in fluorescence were plotted and curves fitted using a 4-parameter logistic equation to generate pIC50 values.

[3] = molecular target: T1, Human GHSR; experiment: GHSR Agonist BACMAM FLIPR Assay (Method Y); type: cell-based; set-up: The full-length gene was transferred into pCDN for expression analysis; expressed in transfected cells; host or cells: U2OS cells transduced with human GHSR BacMam virus (pFastBacmam, CMV promoter); settings: U2OS cells transduced with human GHSR BACMAM virus, accurate to within ±0.5
Source text: Human GHS-R was cloned from human hypothalamus cDNA and TOPO Ta cloned into pCR2.1. The sequence was confirmed. The full-length gene was transferred into pCDN for expression analysis. The sequence was confirmed again and the plasmid was electroporated into CHO cells. The clones were screened by FLIPR. The open reading frame of GHS-R was transferred from pCDN into pFastBacmam vector. This vector was used to generate recombinant baculoviruses in which the insect cell-specific polyhedrin promoter has been replaced with a mammalian cell-active promoter, in this case CMV. This was then used with the Bac to Bac expression system (Invitrogen). Briefly the vector was transformed into DH10 bac E. coli and the bacmid isolated from the transformed cells. […] Human GHSR BACMAM virus was added to the cell suspension at an appropriate % volume (calculated for individual batches of BACMAM virus as viral titres vary). […] The plates were placed in a FLuorimetric Imaging Plate Reader (FLIPR, Molecular Devices) where 10 μl of compound was added to the cells and fluorescence measurements were taken. […] Intrinsic activity of the compounds was calculated by using the maximum asymptote of it's concentration response curve relative to the maximum asymptote of the hGhrelin concentration response curve.

Ki [1]	IC50 [2]	EC50 [3]	SMILES
< 0.01 µM	–	–	CN1CCN(C(C(=O)NCc2cc(Cl)cc(Cl)c2)c2cccc3ccccc23)CC1 (racemic) [Compound 1, (±)-N-[(3,5-dichlorophenyl)methyl]-2-(4-methyl-1-piperazinyl)-2-(1-naphthalenyl)ethanamide]
< 0.01 µM	0.01 µM	> 2 µM	CN1CCN([C@@H](C(=O)NCc2cc(Cl)cc(Cl)c2)c2cccc3ccccc23)CC1 [Compound 3, (2R)-N-[(3,5-dichlorophenyl)methyl]-2-(4-methyl-1-piperazinyl)-2-(1-naphthalenyl)ethanamide hydrochloride]

From patent US20100267734A1, “N-[(3,5-DICHLOROPHENYL)METHYL]-2-(4-METHYL-1-PIPERAZINYL)-2-(1-NAPHTHALENYL)ETHANAMIDE AS GHRELIN RECEPTOR MODULATOR” (Glaxo Group Limited, priority 2007, published 2010)
